According to US20260285863A1, “COMPOUNDS CAPABLE OF MODULATING GPR65” (Pathios Therapeutics Limited, priority 2023, published 2026):

Molecular target: T1, human recombinant GPR65 (Homo sapiens, UniProt Q8IYL9)
T1 construct: host or cells: 1321N1 human astrocytoma cells (1321N1-hrGPR65)
Assay: Human GPR65 cAMP HTRF antagonist assay
Assay type: cell-based
Conditions: 1321N1-hrGPR65 cells, assay pH 7.2, cAMP HTRF; read-out: hGPR65 IC50
In short: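 1321N1 cells stably expressing human GPR65 were preincubated 30 min at room temperature with compound in KRH pH 7.6 containing 1 mM IBMX and 200 μM EDTA. They were then acid-stimulated to pH 7.2 for 30 min, with pH 7.9 as control. cAMP was read by HTRF (665/620 ratio), and IC50 came from normalised 4-parameter logistic fits.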

T1 sequence (Q8IYL9 whole entry): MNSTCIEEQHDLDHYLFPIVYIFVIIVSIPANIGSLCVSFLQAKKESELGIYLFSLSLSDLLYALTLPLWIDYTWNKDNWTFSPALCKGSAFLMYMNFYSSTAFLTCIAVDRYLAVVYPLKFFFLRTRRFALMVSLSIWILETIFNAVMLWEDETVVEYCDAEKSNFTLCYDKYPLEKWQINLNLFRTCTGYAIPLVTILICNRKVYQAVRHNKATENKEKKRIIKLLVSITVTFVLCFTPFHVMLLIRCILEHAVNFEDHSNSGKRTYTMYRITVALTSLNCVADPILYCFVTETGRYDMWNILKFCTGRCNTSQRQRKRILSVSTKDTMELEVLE

SMILES: O=C(Nc1cc(Cl)c(C(F)(F)F)cc1F)N1[C@H]2CC[C@@H]1c1ccncc1C2 [Compound 50, (5R,8S)-N-(5-chloro-2-fluoro-4-(trifluoromethyl)phenyl)-6,7,8,9-tetrahydro-5H-5,8-epiminocyclohepta[c]pyridine-10-carboxamide]
- IC50: < 0.5 µM

SMILES: O=C(Nc1cc(Cl)c(COc2ccc(F)cn2)cc1F)N1[C@H]2CC[C@@H]1c1n[nH]c(=O)cc1C2 [Compound 51, (6S,9R)-N-(5-Chloro-2-fluoro-4-(((5-fluoropyridin-2-yl)oxy)methyl)phenyl)-3-oxo-3,5,6,7,8,9-hexahydro-2H-6,9-epiminocyclohepta[c]pyridazine-10-carboxamide]
- IC50: < 0.5 µM

SMILES: O=C(Nc1cc(Cl)c(COc2cccc(F)n2)cc1F)N1[C@H]2CC[C@@H]1c1n[nH]c(=O)cc1C2 [Compound 52, (6S,9R)-N-(5-Chloro-2-fluoro-4-(((6-fluoropyridin-2-yl)oxy)methyl)phenyl)-3-oxo-3,5,6,7,8,9-hexahydro-2H-6,9-epiminocyclohepta[c]pyridazine-10-carboxamide]
- IC50: < 0.5 µM

SMILES: O=C(Nc1cc(Cl)c(COc2ccccc2)cc1F)N1[C@H]2CC[C@@H]1c1c[nH]c(=O)cc1C2 [Compound 53, (6S,9R)-N-(5-chloro-2-fluoro-4-(phenoxymethyl)phenyl)-3-oxo-3,5,6,7,8,9-hexahydro-2H-6,9-epiminocyclohepta[c]pyridine-10-carboxamide]
- IC50: < 0.5 µM

SMILES: O=C(Nc1cc(Cl)c(COc2ccc(OCC(F)(F)F)cn2)cc1F)N1[C@H]2CC[C@@H]1c1c[nH]c(=O)cc1C2 [Compound 54, (6S,9R)-N-(5-chloro-2-fluoro-4-(((5-(2,2,2-trifluoroethoxy)pyridin-2-yl)oxy)methyl)phenyl)-3-oxo-3,5,6,7,8,9-hexahydro-2H-6,9-epiminocyclohepta[c]pyridine-10-carboxamide]
- IC50: < 0.5 µM

SMILES: O=C(Nc1cc(Cl)c(COc2ccc(OCC(F)(F)F)cn2)cc1F)N1[C@H]2CC[C@@H]1c1n[nH]c(=O)cc1C2 [Compound 55, (6S,9R)-N-(5-Chloro-2-fluoro-4-(((5-(2,2,2-trifluoroethoxy)pyridin-2-yl)oxy)methyl)phenyl)-3-oxo-3,5,6,7,8,9-hexahydro-2H-6,9-epiminocyclohepta[c]pyridazine-10-carboxamide]
- IC50: < 0.5 µM

SMILES: O=C(Nc1cc(Cl)c(COc2cccc(OCC(F)(F)F)n2)cc1F)N1[C@H]2CC[C@@H]1c1n[nH]c(=O)cc1C2 [Compound 56, (6S,9R)-N-(5-chloro-2-fluoro-4-(((6-(2,2,2-trifluoroethoxy)pyridin-2-yl)oxy)methyl)phenyl)-3-oxo-3,5,6,7,8,9-hexahydro-2H-6,9-epiminocyclohepta[c]pyridazine-10-carboxamide]
- IC50: < 0.5 µM

SMILES: O=C(Nc1cc(Cl)c(COc2cccc(OCC(F)(F)F)n2)cc1F)N1[C@H]2CC[C@@H]1c1c[nH]c(=O)cc1C2 [Compound 57, (6S,9R)-N-(5-chloro-2-fluoro-4-(((6-(2,2,2-trifluoroethoxy)pyridin-2-yl)oxy)methyl)phenyl)-3-oxo-3,5,6,7,8,9-hexahydro-2H-6,9-epiminocyclohepta[c]pyridine-10-carboxamide]
- IC50: < 0.5 µM

SMILES: O=C(Nc1cc(Cl)c(COc2ccc(OC3CCCC3)cn2)cc1F)N1[C@H]2CC[C@@H]1c1c[nH]c(=O)cc1C2 [Compound 58, (6S,9R)-N-(5-chloro-4-(((5-(cyclopentyloxy)pyridin-2-yl)oxy)methyl)-2-fluorophenyl)-3-oxo-3,5,6,7,8,9-hexahydro-2H-6,9-epiminocyclohepta[c]pyridine-10-carboxamide]
- IC50: < 0.5 µM

SMILES: O=C(Nc1cc(Cl)c(COc2cccc(OC3CCCC3)n2)cc1F)N1[C@H]2CC[C@@H]1c1n[nH]c(=O)cc1C2 [Compound 59, (6S,9R)-N-(5-chloro-4-(((6-(cyclopentyloxy)pyridin-2-yl)oxy)methyl)-2-fluorophenyl)-3-oxo-3,5,6,7,8,9-hexahydro-2H-6,9-epiminocyclohepta[c]pyridazine-10-carboxamide]
- IC50: < 0.5 µM

SMILES: O=C(Nc1cc(Cl)c(-c2ccc(OCC34CNC(C3)C4)nc2)cc1F)N1[C@H]2CC[C@@H]1c1c[nH]c(=O)cc1C2 [Compound 60, (6S,9R)-N-(4-(6-((2-azabicyclo[2.1.1]hexan-4-yl)methoxy)pyridin-3-yl)-5-chloro-2-fluorophenyl)-3-oxo-3,5,6,7,8,9-hexahydro-2H-6,9-epiminocyclohepta[c]pyridine-10-carboxamide]
- IC50: 0.5 to 5 µM

SMILES: CN1CC2(COc3ccc(-c4cc(F)c(NC(=O)N5[C@H]6CC[C@@H]5c5c[nH]c(=O)cc5C6)cc4Cl)cn3)CC1C2 [Compound 61, (6S,9R)-N-(5-Chloro-2-fluoro-4-(6-((2-methyl-2-azabicyclo[2.1.1]hexan-4-yl)methoxy)pyridin-3-yl)phenyl)-3-oxo-3,5,6,7,8,9-hexahydro-2H-6,9-epiminocyclohepta[c]pyridine-10-carboxamide]
- IC50: 0.5 to 5 µM

SMILES: CN1CCC(Oc2ccc(-c3cc(F)c(NC(=O)N4[C@H]5CC[C@@H]4c4c[nH]c(=O)cc4C5)cc3Cl)cn2)C1 (stereo partly shown) [Compound 62]
- IC50: 0.5 to 5 µM

SMILES: O=C(Nc1cc(Cl)c(-c2ccc(OCC3CNC3)nc2)cc1F)N1[C@H]2CC[C@@H]1c1c[nH]c(=O)cc1C2 [Compound 63, (6S,9R)-N-(4-(6-(Azetidin-3-ylmethoxy)pyridin-3-yl)-5-chloro-2-fluorophenyl)-3-oxo-3,5,6,7,8,9-hexahydro-2H-6,9-epiminocyclohepta[c]pyridine-10-carboxamide]
- IC50: 0.5 to 5 µM

SMILES: O=C(Nc1cc(Cl)c(NCc2cccc(OCC(F)(F)F)n2)cc1F)N1[C@H]2CC[C@@H]1c1n[nH]c(=O)cc1C2 [Compound 64, (6S,9R)-N-(5-chloro-2-fluoro-4-(((6-(2,2,2-trifluoroethoxy)pyridin-2-yl)methyl)amino)phenyl)-3-oxo-3,5,6,7,8,9-hexahydro-2H-6,9-epiminocyclohepta[c]pyridazine-10-carboxamide]
- IC50: < 0.5 µM

SMILES: O=C(Nc1cc(Cl)c(NCc2ccc(OCC(F)(F)F)cn2)cc1F)N1[C@H]2CC[C@@H]1c1n[nH]c(=O)cc1C2 [Compound 65, (6S,9R)-N-(5-chloro-2-fluoro-4-(((5-(2,2,2-trifluoroethoxy)pyridin-2-yl)methyl)amino)phenyl)-3-oxo-3,5,6,7,8,9-hexahydro-2H-6,9-epiminocyclohepta[c]pyridazine-10-carboxamide]
- IC50: 0.5 to 5 µM

SMILES: O=C(Nc1cc(Cl)c(Cl)cc1F)N1[C@H]2CC[C@@H]1c1cc[n+]([O-])cc1C2 [Compound 66, (5R,8S)-10-((4,5-dichloro-2-fluorophenyl)carbamoyl)-6,7,8,9-tetrahydro-5H-5,8-epiminocyclohepta[c]pyridine 2-oxide]
- IC50: < 0.5 µM

SMILES: O=C(Nc1cc(Cl)c(C(F)(F)F)cc1F)N1[C@H]2CC[C@@H]1c1cc[n+]([O-])cc1C2 [Compound 67, (5R,8S)-10-((5-chloro-2-fluoro-4-(trifluoromethyl)phenyl)carbamoyl)-6,7,8,9-tetrahydro-5H-5,8-epiminocyclohepta[c]pyridine 2-oxide]
- IC50: < 0.5 µM

SMILES: Cc1nc2cc(-c3cc(F)c(NC(=O)N4[C@H]5CC[C@@H]4c4c[nH]c(=O)cc4C5)cc3Cl)ccc2[nH]1 [Compound 68, (6S,9R)-N-(5-chloro-2-fluoro-4-(2-methyl-1H-benzo[d]imidazol-5-yl)phenyl)-3-oxo-3,5,6,7,8,9-hexahydro-2H-6,9-epiminocyclohepta[c]pyridine-10-carboxamide]
- IC50: 0.5 to 5 µM

SMILES: O=C(Nc1cc(Cl)c(-c2ccc(OCC(F)(F)F)nc2)cc1F)N1[C@@H]2CC[C@H]1C(F)(F)c1c2ccnc1F [Compound 71, (5R,8S)-N-(5-Chloro-2-fluoro-4-(6-(2,2,2-trifluoroethoxy)pyridin-3-yl)phenyl)-1,9,9-trifluoro-6,7,8,9-tetrahydro-5H-5,8-epiminocyclohepta[c]pyridine-10-carboxamide]
- IC50: < 0.5 µM

SMILES: O=C(Nc1cc(Cl)c(-c2ccc(OCC(F)(F)F)nc2)cc1F)N1[C@H]2CC[C@@H]1C(F)(F)c1c2ccnc1F [Compound 72, (5S,8R)-N-(5-Chloro-2-fluoro-4-(6-(2,2,2-trifluoroethoxy)pyridin-3-yl)phenyl)-1,9,9-trifluoro-6,7,8,9-tetrahydro-5H-5,8-epiminocyclohepta[c]pyridine-10-carboxamide]
- IC50: < 0.5 µM

SMILES: O=C(Nc1cc(Cl)c(-c2ccc3nonc3c2)cn1)N1[C@H]2CC[C@@H]1C(F)(F)c1c2ccnc1F [Compound 73, (5S,8R)-N-(5-(Benzo[c][1,2,5]oxadiazol-5-yl)-4-chloropyridin-2-yl)-1,9,9-trifluoro-6,7,8,9-tetrahydro-5H-5,8-epiminocyclohepta[c]pyridine-10-carboxamide]
- IC50: 0.5 to 5 µM

SMILES: O=C(Nc1cc(Cl)c(-c2ccc3nonc3c2)cn1)N1[C@@H]2CC[C@H]1C(F)(F)c1c2ccnc1F [Compound 74, (5R,8S)-N-(5-(Benzo[c][1,2,5]oxadiazol-5-yl)-4-chloropyridin-2-yl)-1,9,9-trifluoro-6,7,8,9-tetrahydro-5H-5,8-epiminocyclohepta[c]pyridine-10-carboxamide]
- IC50: < 0.5 µM

SMILES: O=C(Nc1cc(Cl)c(-c2ccc3nonc3c2)cn1)N1[C@@H]2CC[C@H]1c1ccnc(F)c1[C@H]2F [Compound 75, (5S,8R,9R)-N-(5-(Benzo[c][1,2,5]oxadiazol-5-yl)-4-chloropyridin-2-yl)-1,9-difluoro-6,7,8,9-tetrahydro-5H-5,8-epiminocyclohepta[c]pyridine-10-carboxamide]
- IC50: < 0.5 µM

SMILES: O=C(Nc1cc(Cl)c(-c2ccc3nonc3c2)cn1)N1[C@@H]2CC[C@H]1[C@@H](F)c1c2ccnc1F [Compound 76, (5R,8S,9S)-N-(5-(Benzo[c][1,2,5]oxadiazol-5-yl)-4-chloropyridin-2-yl)-1,9-difluoro-6,7,8,9-tetrahydro-5H-5,8-epiminocyclohepta[c]pyridine-10-carboxamide]
- IC50: < 0.5 µM
